Measured values published in US20250154169A1, “COMPOUNDS AND METHODS FOR MODULATING SPLICING” (REMIX THERAPEUTICS INC., priority 2021, published 2025).
Like-named read-outs stand apart in the source and are kept apart here.

Legend:
Format in all cases: cell-based, human
HTT mRNA [1] = experiment: Splicing RT-qPCR assay, HTT canonical (CJ) and alternative (AJ) junction mRNA; conditions: Homo sapiens, A673 or K562 cells, 24 hours compound treatment; for IC50: 24 h, read-out: HTT CJ (IC50, decrease in canonical junction mRNA); for AC50: read-out: HTT AJ (AC50, increase in alternative junction mRNA)
Summary of the method: (§1)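 A673 or K562 cells were treated 24 h at 37 °C with an 11-point 3-fold compound dilution series (top 10 uM, DMSO ≤0.25%). Lysates went to one-step RT-qPCR measuring canonical (CJ) and alternative-exon (AJ) junction transcripts, normalized to GAPDH, GUSB or PPIA.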

MYB mRNA = experiment: Splicing RT-qPCR assay, MYB canonical (CJ) and alternative (AJ) junction mRNA; conditions: Homo sapiens; for AC50: read-out: MYB AJ (AC50, increase in alternative junction mRNA)
Summary of the method: as §1

SMN2 mRNA = experiment: Splicing RT-qPCR gene panel, SMN2 canonical junction (CJ) mRNA; conditions: Homo sapiens, Tables 4A/4B, read-out: SMN2 (IC50, decrease in CJ mRNA, gene panel)
Procedure: (§2) Compounds described herein were used to modulate RNA transcript abundance in cells. The expression of a target mRNA was measured by detecting the formation of an exon-exon junction in the canonical transcript (CJ). A compound mediated exon-inclusion event was detected by observing an increase in formation of a new junction with an alternative exon (AJ). Real-time qPCR assays were used to detect these splicing switches and interrogate the potency of various compounds towards different target genes. A high-throughput real time quantitative PCR (RT-qPCR) assay was developed to measure these two isoforms of the mRNA (CJ and AJ) for exemplary genes, such as HTT, SMN2, and MYB, together with a control housekeeping gene, GAPDH or GUSB or PPIA, used for normalization. Briefly, the A673 or K562 cell line was treated with various compounds described herein (e.g., compounds of Formula (I)). After treatment, the levels of the HTT, MYB, or SMN2 mRNA targets were determined from each sample of cell lysate by cDNA synthesis followed by qPCR.
(§3) The A673 cell line was cultured in DMEM with 10% FBS. Cells were diluted with full growth media and plated in a 96-well plate (15,000 cells in 100 ul media per well). The plate was incubated at 37° C. with 5% CO2 for 24 hours to allow cells to adhere. An 11-point 3-fold serial dilution of the compounds was made in DMSO then diluted in media in an intermediate plate. Compounds were transferred from the intermediate plate to the cell plate with the top dose at a final concentration of 10 uM in the well. Final DMSO concentration was kept at or below 0.25%. The cell plate was returned to the incubator at 37° C. with 5% CO2 for an additional 24 hours.
(§4) The K562 cell line was cultured in IMDM with 10% FBS. For K562, cells were diluted with full growth media and plated in either a 96-well plate (50,000 cells in 50 uL media per well) or a 384-well plate (8,000-40,000 cells in 45 uL media per well). An 11-point 3-fold serial dilution of the compounds were made in DMSO then diluted in media in an intermediate plate. Compound was transferred from the intermediate plate to the cell plate with the top dose at a final concentration of 10 uM in the well. Final DMSO concentration was kept at or below 0.25%. Final volume was 100 uL for 96-well plate and 50 uL for 384-well plate. The cell plate was then placed in an incubator at 37° C. with 5% CO2 for 24 hours.
(§5) The cells were then gently washed with 50 uL-100 uL cold PBS before proceeding to addition of lysis buffer. 30 uL-50 uL of room temperature lysis buffer with DNAse I (and optionally RNAsin) was added to each well. Cells were shaken/mixed thoroughly at room temperature for 5-10 minutes for lysis to take place and then 3 uL-5 uL of room temperature stop solution was added and wells were shaken/mixed again. After 2-5 minutes, the cell lysate plate was transferred to ice for RT-qPCR reaction setup. The lysates could also be frozen at −80° C. for later use.
(§6) In some cases, a direct lysis buffer was used. An appropriate volume of 3× lysis buffer (10 mM Tris, 150 mM NaCl, 1.5%-2.5% Igepal and 0.1-1 U/uL RNAsin, pH 7.4) was directly added to either K562 or A673 cells in media and mixed by pipetting 3 times. The plates were then incubated at room temperature with shaking/rocking for 20-50 minutes to allow for lysis to take place. After this time, the cell lysate plate was transferred to ice to set up for the RT-qPCR reactions. The lysates could also be frozen at −80° C. for later use.
(§7) To set up 10 uL RT-qPCR reactions, cell lysates were transferred to 384-well qPCR plates containing the master mix according to the table below. The plates were sealed, gently vortexed, and spun down before the run. The volumes were adjusted accordingly in some instances where the reaction was carried in 20 μL. The table below summarizes the components of the RT-qPCR reactions:
(§8) The RT-qPCR reaction was performed using a QuantStudio (ThermoFisher) under the following fast cycling conditions. […]

Target C mRNA = experiment: Splicing RT-qPCR gene panel, Target C canonical junction (CJ) mRNA; conditions: Homo sapiens, Tables 4A/4B, read-out: Target C (IC50, decrease in CJ mRNA, gene panel)
Procedure: as §2, §3, §4, §5, §6, §7, §8

HTT mRNA [2] = experiment: Splicing RT-qPCR gene panel, HTT canonical junction (CJ) mRNA; conditions: Homo sapiens, Tables 4A/4B, read-out: HTT (IC50, decrease in CJ mRNA, gene panel)
Procedure: as §2, §3, §4, §5, §6, §7, §8

[3] = 24 h, A673 or K562 cells, 24 hours compound treatment, RT-qPCR
[4] = 24 h, A673 or K562 cells, 24 hours compound treatment, RT-qPCR, read-out: MYB CJ (IC50, decrease in canonical junction mRNA)
[5] = Tables 4A/4B, canonical junction qPCR panel, read-out: MYB (IC50, decrease in CJ mRNA, gene panel)

Structure (SMILES)	IC50 (HTT mRNA [1]) [nM]	AC50 (HTT mRNA [1]) [nM]	AC50 (MYB mRNA; [3]) [nM]	IC50 (MYB mRNA; [4]) [nM]	IC50 (MYB mRNA; [5]) [nM]	IC50 (SMN2 mRNA) [nM]	IC50 (Target C mRNA) [nM]	IC50 (HTT mRNA [2]) [nM]
Cc1cn2cc(NC(=O)c3ccc(N4CC5(CNC5)C4)c4cc(C)oc34)cc(F)c2n1 [Compound 205]	100 to 1000	1000 to 10000	100 to 1000	100 to 1000	100 to 1000	< 100	1000 to 10000	100 to 1000
Cc1cn2cc(NC(=O)c3ccc(N4CC5(CN(C)C5)C4)c4cc(C)oc34)cc(F)c2n1 [Compound 206]	1000 to 10000	1000 to 10000	100 to 1000	100 to 1000	100 to 1000	< 100	> 10000	1000 to 10000
Cc1cn2cc(NC(=O)c3ccc(C4CCN(C)CC4)c4cn(C)nc34)cc(F)c2n1 [Compound 209]	100 to 1000	100 to 1000	< 100	< 100	< 100	1000 to 10000	100 to 1000	100 to 1000
CCN1CCC(c2ccc(C(=O)Nc3cc(F)c4nc(C)cn4c3)c3nn(C)cc23)CC1 [Compound 210]	100 to 1000	100 to 1000	< 100	< 100	< 100	< 100	1000 to 10000	100 to 1000
Cc1cn2cc(NC(=O)c3ccc(C4CC(C)(C)NC(C)(C)C4)c4cn(C)nc34)cc(F)c2n1 [Compound 212]	1000 to 10000	> 10000	1000 to 10000	100 to 1000	100 to 1000	100 to 1000	> 10000	1000 to 10000
Cc1cc2c(N3CCNCC3)ccc(C(=O)Nc3cc(F)c4nc(C)sc4c3)c2o1 [Compound 219]	> 10000	> 10000	1000 to 10000	100 to 1000	100 to 1000	100 to 1000	> 10000	> 10000
Cc1cn2cc(NC(=O)c3ccc(N4CCN(C)C(C)C4)c4cn(C)nc34)cc(F)c2n1 (stereo not shown) [Compound 229]	100 to 1000	100 to 1000	< 100	< 100	< 100	< 100	1000 to 10000	100 to 1000
Cn1cc2ccc(NC(=O)c3ccc(N4CCNCC4)c4cn(C)nc34)cc2n1 [Compound 230]	> 10000	> 10000	> 10000	> 10000	> 10000	> 10000	> 10000	> 10000
Cn1cc2c(F)cc(NC(=O)c3ccc(N4CCNCC4)c4cn(C)nc34)cc2n1 [Compound 231]	> 10000	> 10000	> 10000	> 10000	> 10000	> 10000	> 10000	> 10000
Cc1nc2c(F)cc(NC(=O)c3ccc(N4CCNCC4)c4cn(C)nc34)cc2s1 [Compound 235]	1000 to 10000	1000 to 10000	100 to 1000	100 to 1000	100 to 1000	< 100	> 10000	1000 to 10000
CC1=CC2=NC(C)=NC2C=C1NC(=O)c1ccc(N2CCNCC2)c2cn(C)nc12 (stereo not shown) [Compound 237]	1000 to 10000	1000 to 10000	< 100	100 to 1000	100 to 1000	< 100	> 10000	1000 to 10000
Cc1cn2cc(NC(=O)c3ccc(N4CCNCC4)c4cn(C)nc34)cc(C)c2n1 [Compound 238]	1000 to 10000	1000 to 10000	100 to 1000	100 to 1000	100 to 1000	< 100	> 10000	1000 to 10000
CCC1CN(c2ccc(C(=O)Nc3cc(F)c4nc(C)cn4c3)c3nn(C)cc23)CCN1 (stereo not shown) [Compound 239]	100 to 1000	100 to 1000	100 to 1000	< 100	< 100	< 100	1000 to 10000	100 to 1000
CC1=NC2C=C(NC(=O)c3ccc(N4CCNC(C)(C)C4)c4cn(C)nc34)C=C(F)C2=N1 (stereo not shown) [Compound 240]	100 to 1000	100 to 1000	< 100	< 100	< 100	< 100	1000 to 10000	100 to 1000
Cc1cn2cc(NC(=O)c3ccc(N4CC5(CNC5)C4)c4cn(C)nc34)cc(F)c2n1 [Compound 242]	100 to 1000	1000 to 10000	100 to 1000	< 100	< 100	< 100	1000 to 10000	100 to 1000
Cc1cn2cc(NC(=O)c3ccc(N4CC5(CN(C)C5)C4)c4cn(C)nc34)cc(F)c2n1 [Compound 243]	100 to 1000	100 to 1000	< 100	< 100	< 100	< 100	1000 to 10000	100 to 1000
Cc1cn2cc(NC(=O)c3ccc(N(C)C4CC(C)(C)NC(C)(C)C4)c4cn(C)nc34)cc(F)c2n1 [Compound 244]	> 10000	> 10000	> 10000	> 10000	> 10000	100 to 1000	> 10000	> 10000
CC1=NC2C=C(NC(=O)c3ccc(N(C)C4CCN(C)CC4)c4cn(C)nc34)C=C(F)C2=N1 (stereo not shown) [Compound 245]	100 to 1000	100 to 1000	100 to 1000	100 to 1000	100 to 1000	< 100	100 to 1000	100 to 1000
Cc1cn2cc(NC(=O)c3ccc(N4CCNCC4)c4cn(C)nc34)ncc2n1 [Compound 246]	1000 to 10000	1000 to 10000	< 100	< 100	< 100	< 100	> 10000	1000 to 10000
Cc1cn2nc(NC(=O)c3ccc(N4CCNCC4)c4cn(C)nc34)cc2c(C)n1 [Compound 247]	> 10000	> 10000	> 10000	> 10000	> 10000	> 10000	> 10000	> 10000
